Patent US9956262B2, “Use of a bacterium isolated from the genus Pseudoalteromonas, cyclolipopeptides and uses thereof” (priority 2013, dated 2018)
Values after ≈ are worked out from the molar mass of the structure shown. Read-outs that look alike come from different tables or passages of the source.

Key:
[1] = tested on: strain hCg-6; assay: Antibiotic sensitivity of the strain hCg-6; assay type: cell-based, Pseudoalteromonas hCg-6; parameters: key to Sensitive to: +: Positive; −: negative; f: slight reaction
[2] = tested on: Pseudomonas aeruginosa ATCC 27853; assay: MIC in liquid medium; assay type: cell-based; settings: 24 h
Method: (§1) The minimum inhibitory concentration (MIC) of the compounds nos. 1, 2, 3, 5, 7 and 8 was evaluated in a liquid medium following the procedure of Wiegand, Hilpert, and Hancock 2008. The spectrum of the target bacteria was extended to certain human pathogens such as the bacteria Salmonella enterica, a clinical strain of Escherichia coli having a beta-3-lactamase activity with an extended spectrum and Pseudomonas aeruginosa. After 24 h of incubation at an optimum temperature, the MICs are evaluated visually.

[3] = tested on: E. coli ML35; assay: MIC in liquid medium; assay type: cell-based; settings: 24 h
Method: as §1

[4] = tested on: A. caviae CIP 7616; assay: MIC in liquid medium; assay type: cell-based; settings: 24 h
Method: as §1

[5] = tested on: E. coli SBS363; assay: MIC in liquid medium; assay type: cell-based; settings: 24 h
Method: as §1

[6] = tested on: S. enterica CIP 8297; assay: MIC in liquid medium; assay type: cell-based; settings: 24 h
Method: as §1

[7] = tested on: Y. ruckeri ATCC 29473; assay: MIC in liquid medium; assay type: cell-based; settings: 24 h
Method: as §1

[8] = tested on: E. coli β résistante P7 (clinical strain); assay: MIC in liquid medium; assay type: cell-based; settings: 24 h
Method: as §1

[9] = tested on: V. splendidus LGP 32; assay: MIC in liquid medium; assay type: cell-based; settings: 24 h
Method: as §1

[10] = tested on: collection of strains of Vibrio splendidus isolated from oysters; assay: MIC in liquid medium on a collection of Vibrio splendidus strains isolated from oysters; assay type: cell-based; settings: collection of V. splendidus strains
Method: The cyclolipopeptide no. 2 was tested on a collection of strains of Vibrio splendidus isolated from oysters. It has minimum inhibitory concentrations from 1.56 to 50 μM. The MICs were defined in a liquid medium by using the procedure of Wiegand, Hilpert, and Hancock 2008.

[11] = tested on: V. harveyi ORM4; assay: MIC in liquid medium; assay type: cell-based; settings: 24 h
Method: as §1

[12] = tested on: A. hydrophila CIP 7614; assay: MIC in liquid medium; assay type: cell-based; settings: 24 h
Method: as §1

Row | Molecule | resistance/sensitivity of the strain hCg-6 [1] | MIC [3] | MIC [5] | MIC [6] | MIC [7] | MIC [9] | other results
1 | CC1(C)S[C@@H]2[C@H](NC(=O)[C@H](N)c3ccc(O)cc3)C(=O)N2[C@H]1C(=O)O [amoxicillin] | sensitive |  |  |  |  |  | 
2 | CO/N=C(\C(=O)N[C@@H]1C(=O)N2C(C(=O)[O-])=C(C[n+]3cccc4c3CCCC4)CS[C@H]12)c1csc(N)n1 [cefquinom] | sensitive |  |  |  |  |  | 
3 | CC1=C(C(=O)O)N2C(=O)[C@@H](NC(=O)[C@H](N)c3ccccc3)[C@H]2SC1 [cephalexin] | resistant |  |  |  |  |  | 
4 | CC=C1NC(=O)C(NC(=O)CC(O)CCCCCCC)C(O)CNC(=O)C(C(O)CN)NC(=O)C(C(O)CN)NC(=O)C(CCCNC(=N)N)NC(=O)C(CC(C)CC)NC(=O)C(CCN)NC1=O (stereo not shown) [cyclolipopeptide 2] |  | 35 µM (≈ 34.5 µg/mL) | 0.1 µM (≈ 0.0985 µg/mL) | 1.4 µM (≈ 1.38 µg/mL) | 1.1 µM (≈ 1.08 µg/mL) | 4.4 µM (≈ 4.33 µg/mL) | MIC [2]: 35.2 µM (≈ 34.7 µg/mL); MIC [4]: 17.6 µM (≈ 17.3 µg/mL); MIC [8]: 8.8 µM (≈ 8.67 µg/mL); minimum inhibitory concentrations [10]: 1.56 to 50 µM
5 | CC=C1NC(=O)C(NC(=O)CCCCCCC)C(O)CNC(=O)C(C(O)CN)NC(=O)C(C(O)CN)NC(=O)C(CCCNC(=N)N)NC(=O)C(CC(C)CC)NC(=O)C(CCN)NC1=O (stereo not shown) [cyclolipopeptide 3] |  | 100 µM (≈ 94.1 µg/mL) | 50 µM (≈ 47.1 µg/mL) | 12.5 µM (≈ 11.8 µg/mL) | 50 µM (≈ 47.1 µg/mL) | 50 µM (≈ 47.1 µg/mL) | MIC [11]: 50 µM (≈ 47.1 µg/mL)
6 | CC=C1NC(=O)C(NC(=O)CCCCCCCC)C(O)CNC(=O)C(C(O)CN)NC(=O)C(C(O)CN)NC(=O)C(CCCNC(=N)N)NC(=O)C(CC(C)CC)NC(=O)C(CCN)NC1=O (stereo not shown) [cyclolipopeptide 5] |  | 50 µM (≈ 47.8 µg/mL) | 25 µM (≈ 23.9 µg/mL) | 6.3 µM (≈ 6.02 µg/mL) | 6.3 µM (≈ 6.02 µg/mL) | 6.3 µM (≈ 6.02 µg/mL) | MIC [11]: 6.3 µM (≈ 6.02 µg/mL); MIC [12]: 25 µM (≈ 23.9 µg/mL)
7 | CCN1CCN(c2cc3c(cc2F)c(=O)c(C(=O)O)cn3C2CC2)CC1 [enrofloxacin] | sensitive |  |  |  |  |  | 
8 | CCn1cc(C(=O)O)c(=O)c2cc3c(cc21)OCO3 [oxolinic acid] | sensitive |  |  |  |  |  | 
9 | Polymyxin B [reference compound] |  | 3.1 µM | 0.2 µM | 0.8 µM | 0.4 µM | 1.6 µM | MIC [2]: 1.6 µM; MIC [11]: 25 µM; MIC [4]: 3.1 µM; MIC [8]: 1.6 µM; MIC [12]: 0.8 µM
10 | gentamycin | sensitive |  |  |  |  |  | 
11 | polymyxin |  |  |  |  |  |  | resistance/sensitivity of the strain hCg-6 ([1]; 50 μg): resistant; Sensitive to ([1]; 300 ED): −
